ChEMBL document CHEMBL1141733, “Cardiovascular effects of aspidofractinine-type alkaloids from Kopsia” (1998)
The source made the active and inactive calls. The rule behind the calls is not given here.

Legend:
[1] = tested on: Rattus norvegicus; test: (§1) Antihypertensive activity in anesthetized SHR rat assessed as decrease in heart rate at 10 mg/kg, iv; assay type: functional, organism-based; parameters: dose 10 mg/kg
[2] = tested on: Rattus norvegicus; test: Increase in basal mean arterial blood pressure anesthetized SHR rat at 1 mg/kg, iv; assay type: functional, organism-based; parameters: dose 1 mg/kg
[3] = tested on: Rattus norvegicus; test: Antihypertensive activity in iv dosed anesthetized SHR rat assessed as decrease in basal mean arterial blood pressure; assay type: functional, organism-based; settings: Artery
[4] = tested on: Rattus norvegicus; test: Increase in basal mean arterial blood pressure anesthetized SHR rat at 2 mg/kg, iv; assay type: functional, organism-based; parameters: dose 2 mg/kg
[5] = tested on: Rattus norvegicus; test: Antihypertensive activity in iv dosed anesthetized SHR rat assessed as concomitant fall in heart rate; assay type: functional, organism-based
[6] = tested on: Rattus norvegicus; test: Increase in basal mean arterial blood pressure anesthetized SHR rat at 0.2 mg/kg, iv; assay type: functional, organism-based; parameters: dose 0.2 mg/kg
[7] = tested on: Rattus norvegicus; test: Antihypertensive activity in anesthetized SHR rat assessed as decrease in heart rate at 0.2 mg/kg, iv; assay type: functional, organism-based; parameters: dose 0.2 mg/kg
[8] = tested on: Rattus norvegicus; test: Antihypertensive activity in anesthetized SHR rat assessed as decrease in heart rate at 1 mg/kg, iv; assay type: functional, organism-based; parameters: dose 1 mg/kg
[9] = tested on: Rattus norvegicus; test: Increase in basal mean arterial blood pressure anesthetized SHR rat at 10 mg/kg, iv; assay type: functional, organism-based; parameters: dose 10 mg/kg
[10] = tested on: Rattus norvegicus; test: Increase in basal mean arterial blood pressure anesthetized SHR rat at 0.5 mg/kg, iv; assay type: functional, organism-based; parameters: dose 0.5 mg/kg
[11] = tested on: Rattus norvegicus; test: Antihypertensive activity in anesthetized SHR rat assessed as decrease in heart rate at 2 mg/kg, iv; assay type: functional, organism-based; parameters: dose 2 mg/kg
[12] = tested on: Rattus norvegicus; test: Antihypertensive activity in anesthetized SHR rat assessed as decrease in heart rate at 5 mg/kg, iv; assay type: functional, organism-based; parameters: dose 5 mg/kg
[13] = tested on: Rattus norvegicus; test: Increase in basal mean arterial blood pressure anesthetized SHR rat at 5 mg/kg, iv; assay type: functional, organism-based; parameters: dose 5 mg/kg
[14] = tested on: Rattus norvegicus; test: Antihypertensive activity in anesthetized SHR rat assessed as decrease in heart rate at 0.5 mg/kg, iv; assay type: functional, organism-based; parameters: dose 0.5 mg/kg
[15] = tested on: Rattus norvegicus; test: Antihypertensive activity in anesthetized SHR rat assessed as decrease in heart rate at 10 mg/kg, iv pretreated with hexamethonium for 10 mins; assay type: functional, organism-based; parameters: dose 10 mg/kg
[16] = tested on: Rattus norvegicus; test: Antihypertensive activity in anesthetized SHR rat assessed as decrease in basal mean arterial blood pressure at 10 mg/kg, iv pretreated with hexamethonium for 10 mins; assay type: functional, organism-based; parameters: dose 10 mg/kg; settings: Artery
[17] = tested on: Rattus norvegicus; test: Antihypertensive activity in anesthetized SHR rat assessed as heart rate at 2 mg/kg, iv after 10 mins; assay type: functional
[18] = tested on: Rattus norvegicus; test: Antihypertensive activity in anesthetized SHR rat assessed as basal mean arterial blood pressure at 2 mg/kg, iv after 10 mins; assay type: functional, Artery
[19] = tested on: Rattus norvegicus; test: Antihypertensive activity in anesthetized SHR rat assessed as decrease in heart rate at 2 mg/kg, iv after 24 to 26 seconds; assay type: functional
[20] = tested on: Rattus norvegicus; test: Antihypertensive activity in anesthetized SHR rat assessed as decrease in basal mean arterial blood pressure at 2 mg/kg, iv after 24 to 26 seconds; assay type: functional, Artery
[21] = tested on: Rattus norvegicus; test: Antihypertensive activity in anesthetized SHR rat assessed as decrease in basal mean arterial blood pressure at 10 mg/kg, iv pretreated with phentolamine for 10 mins; assay type: functional, Artery
[22] = tested on: Rattus norvegicus; test: Antihypertensive activity in anesthetized SHR rat assessed as decrease in basal mean arterial blood pressure at 10 mg/kg, iv; assay type: functional, Artery
[23] = tested on: Rattus norvegicus; test: as §1; assay type: functional
[24] = tested on: Rattus norvegicus; test: Antihypertensive activity in anesthetized SHR rat assessed as decrease in heart rate at 10 mg/kg, iv pretreated with phentolamine for 10 mins; assay type: functional
[25] = tested on: Rattus norvegicus; test: Antihypertensive activity in anesthetized SHR rat assessed as decrease in heart rate at 20 mg/kg, iv after 10 mins; assay type: functional
[26] = tested on: Rattus norvegicus; test: Antihypertensive activity in anesthetized SHR rat assessed as decrease in basal mean arterial blood pressure at 20 mg/kg, iv after 10 mins; assay type: functional, Artery
[27] = tested on: Rattus norvegicus; test: Antihypertensive activity in anesthetized SHR rat assessed as decrease in basal mean arterial blood pressure at 20 mg/kg, iv after 1 to 1.5 mins; assay type: functional, Artery
[28] = tested on: Rattus norvegicus; test: Antihypertensive activity in anesthetized SHR rat assessed as decrease in heart rate at 20 mg/kg, iv after 1 to 1.5 mins; assay type: functional
[29] = tested on: Rattus norvegicus; test: Antihypertensive activity in anesthetized SHR rat assessed as hypotensive response lasting time at 10 mg/kg, iv; assay type: functional
[30] = tested on: Rattus norvegicus; test: Antihypertensive activity in anesthetized SHR rat assessed as decrease in heart rate at 10 mg/kg, iv pretreated with atropine for 10 mins; assay type: functional
[31] = tested on: Rattus norvegicus; test: Antihypertensive activity in anesthetized SHR rat assessed as decrease in basal mean arterial blood pressure at 10 mg/kg, iv pretreated with atropine for 10 mins; assay type: functional, Artery
[32] = tested on: Rattus norvegicus; test: Antihypertensive activity in iv dosed anesthetized WKY rat assessed as hypotensive activity; assay type: functional, organism-based
[33] = tested on: Rattus norvegicus; test: Antihypertensive activity in anesthetized SHR rat assessed as decrease in basal mean arterial blood pressure at 3 mg/kg, iv after 10 mins; assay type: functional, Artery
[34] = tested on: Rattus norvegicus; test: Antihypertensive activity in anesthetized SHR rat assessed as increase in heart rate at 3 mg/kg, iv; assay type: functional
[35] = tested on: Rattus norvegicus; test: Antihypertensive activity in anesthetized SHR rat assessed as decrease in basal mean arterial blood pressure at 3 mg/kg, iv; assay type: functional, Artery
[36] = tested on: Rattus norvegicus; test: Antihypertensive activity in anesthetized SHR rat assessed as decrease in heart rate at 3 mg/kg, iv after 10 mins; assay type: functional

For `COC(=O)N1c2c(OC)cccc2[C@@]23CCN4[C@@H]5C[C@@H](OC)[C@]6(CC[C@]12[C@](O)(C(=O)OC)[C@H]6O5)[C@H]43`, the Activity [1] was “Active”, the Activity [2] was “Active” and the Activity [3] was “Dose-dependent effect”. The Activity [4] was “Active”, the Activity [5] was “Dose-dependent effect” and the Activity [6] was “Active”. The Activity [7] was “Active”, the Activity [8] was “Active” and the Activity [9] was “Active”. The Activity [10] was “Active”, the Activity [11] was “Active” and the Activity [12] was “Active”. For the same molecule, the Activity [13] was “Active” and the Activity [14] was “Active”.
In the case of `COC(=O)N1c2c(OC)cccc2[C@@]23CCN4[C@H]5CC[C@]6(CC[C@]12[C@](O)(C(=O)OC)[C@@H]6O5)[C@H]43`, the Activity [1] is reported as “Active”, the Activity [2] is reported as “Active” and the Activity [3] is reported as “Dose-dependent effect”. The Activity [4] was “Active”, the Activity [5] was “Dose-dependent effect” and the Activity [6] was “Active”. The Activity [7] was “Active”, the Activity [15] was “Active” and the Activity [9] was “Active”. The Activity [16] was “Active”, the Activity [10] was “Active” and the Activity [11] was “Active”. The Activity [12] was “Active”, the Activity [13] was “Active” and the Activity [14] was “Active”.
`CN1[C@@H]2CC[C@H]1C[C@@H](OC(=O)C(CO)c1ccccc1)C2` (stereo partly drawn) [ATROPINE] showed an Activity [17] of 368 bpm, an Activity [18] of 160.9 mmHg and an Activity [19] of 371 bpm. The Activity [20] was 155.6 mmHg.
With `COC(=O)N1c2c(OC)cccc2[C@@]23CCN4CCC[C@]5(CC[C@]12[C@](O)(C(=O)OC)[C@@H]5O)[C@H]43` [DIHYDROKOPSINGINE] the Activity [21] was 18.2 mmHg, the Activity [3] was “Dose-dependent effect” and the Activity [5] was “Dose-dependent effect”. The Activity [22] was -44.7 mmHg, the Activity [15] was “inactive” and the Activity [16] was “inactive”. For the same molecule, the Activity [23] was -49.2 bpm and the Activity [24] was -52.5 bpm.
Molecule `C[N+](C)(C)CCCCCC[N+](C)(C)C.[Cl-].[Cl-]` [HEXAMETHONIUM CHLORIDE] has an Activity [25] of 296.8 bpm, an Activity [26] of 104.8 mmHg and an Activity [27] of 92 mmHg. The Activity [28] was 313.6 bpm.
With `COC(=O)N1c2ccccc2[C@]23CCN4CC=C[C@@]5(CC[C@@]12[C@@](O)(C(=O)OC)[C@H]5O)[C@@H]43` [KOPSAPORINE] the Activity [3] was “Dose-dependent effect” and the Activity [29] was 3.6 min.
For `COC(=O)N1c2c(OC)cccc2[C@@]23CCN4CC=C[C@]5(CC[C@]12[C@](O)(C(=O)OC)[C@@H]5O)[C@H]43` [KOPSINGINE], the Activity [30] was -71.5 bpm, the Activity [21] was 30.7 mmHg and the Activity [3] was “Dose-dependent effect”. The Activity [31] was -51 mmHg, the Activity [5] was “Dose-dependent effect” and the Activity [32] was “Dose-dependent effect”. For the same molecule, the Activity [22] was -68.5 mmHg, the Activity [15] was “inactive” and the Activity [16] was “inactive”. It also gave an Activity [23] of -101 bpm, an Activity [29] of 3.9 min and an Activity [24] of 66.7 bpm.
In the case of `Cc1ccc(N(CC2=NCCN2)c2cccc(O)c2)cc1` [PHENTOLAMINE], the Activity [33] is reported as 108.4 mmHg, the Activity [34] is reported as 372.5 bpm and the Activity [35] is reported as 106.7 mmHg. It also gave an Activity [36] of 356.7 bpm.
